Assay results from PubChem BioAssay (NCI).
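Method: 48-hour compound exposure of cells in 96-well plates, five concentrations, linear interpolation of endpoints. The concentration for 50% growth inhibition is given as GI50. At the TGI there is no net growth.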

Tests used:
Assay in all cases: inhibition of tumour cell growth, NCI panel, 48 h
786-0 renal = tested on: 786-0 renal
A498 renal = tested on: A498 renal
A549 NSCLC = tested on: A549 NSCLC
ACHN renal = tested on: ACHN renal
BT-549 breast = tested on: BT-549 breast
CAKI-1 renal = tested on: CAKI-1 renal
CCRF-CEM leukemia = tested on: CCRF-CEM leukemia
COLO 205 colon = tested on: COLO 205 colon
DU-145 prostate = tested on: DU-145 prostate
EKVX NSCLC = tested on: EKVX NSCLC
HCC-2998 colon = tested on: HCC-2998 colon
HCT-116 colon = tested on: HCT-116 colon
HCT-15 colon = tested on: HCT-15 colon
HL-60(TB) leukemia = tested on: HL-60(TB) leukemia
HOP-62 NSCLC = tested on: HOP-62 NSCLC
HOP-92 NSCLC = tested on: HOP-92 NSCLC
HS 578T breast = tested on: HS 578T breast
HT29 colon = tested on: HT29 colon
IGROV1 ovarian = tested on: IGROV1 ovarian
K-562 leukemia = tested on: K-562 leukemia
KM12 colon = tested on: KM12 colon
LOX IMVI melanoma = tested on: LOX IMVI melanoma
M14 melanoma = tested on: M14 melanoma
MALME-3M melanoma = tested on: MALME-3M melanoma
MCF7 breast = tested on: MCF7 breast
MDA-MB-231 breast = tested on: MDA-MB-231 breast
MDA-MB-435 = tested on: MDA-MB-435
MOLT-4 leukemia = tested on: MOLT-4 leukemia
NCI-H226 lung = tested on: NCI-H226 lung
NCI-H23 lung = tested on: NCI-H23 lung
NCI-H460 lung = tested on: NCI-H460 lung
NCI-H522 lung = tested on: NCI-H522 lung
NCI/ADR-RES ovarian = tested on: NCI/ADR-RES ovarian
OVCAR-3 ovarian = tested on: OVCAR-3 ovarian
OVCAR-4 ovarian = tested on: OVCAR-4 ovarian
OVCAR-5 ovarian = tested on: OVCAR-5 ovarian
OVCAR-8 ovarian = tested on: OVCAR-8 ovarian
PC-3 prostate = tested on: PC-3 prostate
RPMI-8226 leukemia = tested on: RPMI-8226 leukemia
RXF 393 renal = tested on: RXF 393 renal
SF-268 CNS = tested on: SF-268 CNS
SF-295 CNS = tested on: SF-295 CNS
SF-539 CNS = tested on: SF-539 CNS
SK-MEL-2 melanoma = tested on: SK-MEL-2 melanoma
SK-MEL-28 melanoma = tested on: SK-MEL-28 melanoma
SK-MEL-5 melanoma = tested on: SK-MEL-5 melanoma
SK-OV-3 ovarian = tested on: SK-OV-3 ovarian
SN12C renal = tested on: SN12C renal
SNB-19 CNS = tested on: SNB-19 CNS
SNB-75 CNS = tested on: SNB-75 CNS
SR leukemia = tested on: SR leukemia
SW-620 colon = tested on: SW-620 colon
T-47D breast = tested on: T-47D breast
TK-10 renal = tested on: TK-10 renal
U251 CNS = tested on: U251 CNS
UACC-257 melanoma = tested on: UACC-257 melanoma
UACC-62 melanoma = tested on: UACC-62 melanoma
UO-31 renal = tested on: UO-31 renal

Work on COc1ccc2nc3cc(Cl)ccc3c(NCCNCC(O)CO)c2c1 (stereo unspecified) yielded a GI50 (786-0 renal) of 2.34 µM, a TGI (786-0 renal) of 12.3 µM and a GI50 (A498 renal) of 0.245 µM. It also gave a TGI (A498 renal) of 2.64 µM, a GI50 (A549 NSCLC) of 3.33 µM and a TGI (A549 NSCLC) of 14.1 µM. The GI50 (ACHN renal) was 2.27 µM, the TGI (ACHN renal) was 13.3 µM and the GI50 (BT-549 breast) was 6.69 µM. The TGI (BT-549 breast) was 20.8 µM, the GI50 (CAKI-1 renal) was 5.79 µM and the TGI (CAKI-1 renal) was 20.3 µM. It also gave a GI50 (CCRF-CEM leukemia) of 1.69 µM, a TGI (CCRF-CEM leukemia) of 13.8 µM and a GI50 (COLO 205 colon) of 0.622 µM. For the same compound, the TGI (COLO 205 colon) was 2.41 µM, the GI50 (DU-145 prostate) was 1.88 µM and the TGI (DU-145 prostate) was 11.4 µM. For the same compound, the GI50 (EKVX NSCLC) was 3.33 µM, the TGI (EKVX NSCLC) was 13.1 µM and the GI50 (HCC-2998 colon) was 1.59 µM. The TGI (HCC-2998 colon) was 6.55 µM, the GI50 (HCT-116 colon) was 0.391 µM and the TGI (HCT-116 colon) was 2.83 µM. It also gave a GI50 (HCT-15 colon) of 5.36 µM, a TGI (HCT-15 colon) of 20 µM and a GI50 (HL-60(TB) leukemia) of 2.83 µM. The TGI (HL-60(TB) leukemia) was 7 µM, the GI50 (HOP-62 NSCLC) was 1.1 µM and the TGI (HOP-62 NSCLC) was 4.74 µM. For the same compound, the GI50 (HOP-92 NSCLC) was 2.8 µM, the TGI (HOP-92 NSCLC) was 7.18 µM and the GI50 (HS 578T breast) was 3.75 µM. It also gave a TGI (HS 578T breast) of 21.1 µM, a GI50 (HT29 colon) of 0.726 µM and a TGI (HT29 colon) of 6.91 µM. For the same compound, the GI50 (IGROV1 ovarian) was 1.7 µM, the TGI (IGROV1 ovarian) was 11.7 µM and the GI50 (K-562 leukemia) was 0.807 µM. For the same compound, the TGI (K-562 leukemia) was 10.2 µM, the GI50 (KM12 colon) was 1.66 µM and the TGI (KM12 colon) was 10.7 µM. For the same compound, the GI50 (LOX IMVI melanoma) was 0.5 µM, the TGI (LOX IMVI melanoma) was 2.35 µM and the GI50 (M14 melanoma) was 2.79 µM. The TGI (M14 melanoma) was 10.9 µM, the GI50 (MALME-3M melanoma) was 1.72 µM and the TGI (MALME-3M melanoma) was 5.93 µM. The GI50 (MCF7 breast) was 0.624 µM, the TGI (MCF7 breast) was 10.1 µM and the GI50 (MDA-MB-231 breast) was 1.25 µM. For the same compound, the TGI (MDA-MB-231 breast) was 5.83 µM, the GI50 (MDA-MB-435) was 1.44 µM and the TGI (MDA-MB-435) was 4.61 µM. The GI50 (MOLT-4 leukemia) was 0.408 µM, the TGI (MOLT-4 leukemia) was 10.7 µM and the GI50 (NCI-H226 lung) was 2.18 µM. The TGI (NCI-H226 lung) was 12.1 µM, the GI50 (NCI-H23 lung) was 1.62 µM and the TGI (NCI-H23 lung) was 7.87 µM. For the same compound, the GI50 (NCI-H460 lung) was 0.631 µM, the TGI (NCI-H460 lung) was 3.33 µM and the GI50 (NCI-H522 lung) was 0.984 µM. For the same compound, the TGI (NCI-H522 lung) was 3.93 µM, the GI50 (NCI/ADR-RES ovarian) was 16.2 µM and the TGI (NCI/ADR-RES ovarian) was 36.1 µM. It also gave a GI50 (OVCAR-3 ovarian) of 1.81 µM, a TGI (OVCAR-3 ovarian) of 8.55 µM and a GI50 (OVCAR-4 ovarian) of 1.35 µM. The TGI (OVCAR-4 ovarian) was 9.15 µM, the GI50 (OVCAR-5 ovarian) was 2.16 µM and the TGI (OVCAR-5 ovarian) was 11.2 µM. For the same compound, the GI50 (OVCAR-8 ovarian) was 1.17 µM, the TGI (OVCAR-8 ovarian) was 11.7 µM and the GI50 (PC-3 prostate) was 2.34 µM. It also gave a TGI (PC-3 prostate) of 10.7 µM, a GI50 (RPMI-8226 leukemia) of 2.3 µM and a TGI (RPMI-8226 leukemia) of 6.38 µM. The GI50 (RXF 393 renal) was 1.66 µM, the TGI (RXF 393 renal) was 4.75 µM and the GI50 (SF-268 CNS) was 1.03 µM. The TGI (SF-268 CNS) was 13.1 µM, the GI50 (SF-295 CNS) was 2.33 µM and the TGI (SF-295 CNS) was 12.3 µM. It also gave a GI50 (SF-539 CNS) of 1.23 µM, a TGI (SF-539 CNS) of 9.14 µM and a GI50 (SK-MEL-2 melanoma) of 2.01 µM. The TGI (SK-MEL-2 melanoma) was 6.97 µM, the GI50 (SK-MEL-28 melanoma) was 2.19 µM and the TGI (SK-MEL-28 melanoma) was 5.43 µM. For the same compound, the GI50 (SK-MEL-5 melanoma) was 3.3 µM, the TGI (SK-MEL-5 melanoma) was 11.1 µM and the GI50 (SK-OV-3 ovarian) was 2.43 µM. For the same compound, the TGI (SK-OV-3 ovarian) was 7.95 µM, the GI50 (SN12C renal) was 0.946 µM and the TGI (SN12C renal) was 9.94 µM. It also gave a GI50 (SNB-19 CNS) of 1.29 µM, a TGI (SNB-19 CNS) of 12.6 µM and a GI50 (SNB-75 CNS) of 1.14 µM. For the same compound, the TGI (SNB-75 CNS) was 11.1 µM, the GI50 (SR leukemia) was 0.597 µM and the TGI (SR leukemia) was 10.8 µM. It also gave a GI50 (SW-620 colon) of 0.61 µM, a TGI (SW-620 colon) of 11.3 µM and a GI50 (T-47D breast) of 1.4 µM. It also gave a TGI (T-47D breast) of 6.86 µM, a GI50 (TK-10 renal) of 3.11 µM and a TGI (TK-10 renal) of 12.4 µM. For the same compound, the GI50 (U251 CNS) was 1.55 µM, the TGI (U251 CNS) was 10.8 µM and the GI50 (UACC-257 melanoma) was 3.94 µM. It also gave a TGI (UACC-257 melanoma) of 12.9 µM, a GI50 (UACC-62 melanoma) of 1.55 µM and a TGI (UACC-62 melanoma) of 4.01 µM. It also gave a GI50 (UO-31 renal) of 3.62 µM and a TGI (UO-31 renal) of 17.4 µM.
